Data: the supplement of paper PMC10307832

What was measured:
Experiment in all cases: relative viability (nuclei count vs DMSO), 5 days (fraction); higher = more cells survive
NCI-H1648 = test system: NCI-H1648
Summary of the method: (§1)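 Lung cancer cell lines in 1536-well plates got either a single drug or a fixed anchor-drug dose together with five library-drug doses (not always all listed) in √10 steps, by pin tool, on the day after seeding. Nuclei were counted after 5 days, and relative viability is the treated-to-vehicle ratio of nuclei counts. Values are medians of duplicate plates.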

NCI-H520 = test system: NCI-H520
Summary of the method: as §1

NCI-H1703 = test system: NCI-H1703
Summary of the method: as §1

A549 = test system: A549
Summary of the method: as §1

IA-LM = test system: IA-LM
Summary of the method: as §1

| SMILES | relative viability (NCI-H1648; first compound 0.04 µM) | relative viability (NCI-H1648; first compound 0.1265 µM) | relative viability (NCI-H1648; first compound 0.4 µM) | relative viability (NCI-H1648; first compound 1.265 µM) | relative viability (NCI-H1648; first compound 4 µM) | relative viability (NCI-H520; first compound 0.04 µM) | relative viability (NCI-H520; first compound 0.1265 µM) | relative viability (NCI-H520; first compound 0.4 µM) | relative viability (NCI-H520; first compound 1.265 µM) | relative viability (NCI-H520; first compound 4 µM) | relative viability (NCI-H1703; first compound 0.04 µM) | relative viability (NCI-H1703; first compound 0.1265 µM) | relative viability (NCI-H1703; first compound 1.265 µM) | relative viability (NCI-H1703; first compound 4 µM) | relative viability (A549; first compound 0.04 µM) | relative viability (A549; first compound 0.1265 µM) | relative viability (A549; first compound 0.4 µM) | relative viability (A549; first compound 1.265 µM) | relative viability (A549; first compound 4 µM) | relative viability (IA-LM; first compound 0.04 µM) | relative viability (IA-LM; first compound 0.1265 µM) | relative viability (IA-LM; first compound 0.4 µM) | relative viability (IA-LM; first compound 1.265 µM) | relative viability (IA-LM; first compound 4 µM) | relative viability (NCI-H1703; first compound 0.4 µM) |
| --- | --- | --- | --- | --- | --- | --- | --- | --- | --- | --- | --- | --- | --- | --- | --- | --- | --- | --- | --- | --- | --- | --- | --- | --- | --- |
| COc1cc(N2CCC(C(N)=O)CC2)ccc1Nc1nc(N)c(Cl)c(Nc2ccccc2S(=O)(=O)C(C)C)n1 [HG-5-88-01] + CC(=O)c1c(C)c2cnc(Nc3ccc(N4CCNCC4)cn3)nc2n(C2CCCC2)c1=O [Palbociclib] (partner 0.5 µM) | 0.291 | 0.27 | 0.321 | 0.206 | 0.244 | 0.206 | 0.216 | 0.186 | 0.247 | 0.232 | – | – | – | – | – | – | – | – | – | – | – | – | – | – | – |
| COc1cc(N2CCC(C(N)=O)CC2)ccc1Nc1nc(N)c(Cl)c(Nc2ccccc2S(=O)(=O)C(C)C)n1 [HG-5-88-01] + NC(=O)Nc1cc(-c2cccc(F)c2)sc1C(=O)N[C@H]1CCCNC1 [AZD7762] (partner 0.2 µM) | 0.63 | 0.624 | 0.695 | 0.683 | 0.654 | – | – | – | – | – | 0.106 | 0.133 | 0.122 | 0.124 | – | – | – | – | – | – | – | – | – | – | – |
| COc1cc(N2CCC(C(N)=O)CC2)ccc1Nc1nc(N)c(Cl)c(Nc2ccccc2S(=O)(=O)C(C)C)n1 [HG-5-88-01] + Nc1nc2[nH]cc(CCc3ccc(C(=O)N[C@@H](CCC(=O)O)C(=O)O)cc3)c2c(=O)[nH]1 [Pemetrexed] (partner 0.2 µM) | 0.772 | 0.719 | 0.605 | 0.596 | 0.562 | 0.604 | 0.592 | 0.454 | 0.737 | 0.61 | – | – | – | – | – | – | – | – | – | – | – | – | – | – | – |
| COc1cc(N2CCC(C(N)=O)CC2)ccc1Nc1nc(N)c(Cl)c(Nc2ccccc2S(=O)(=O)C(C)C)n1 [HG-5-88-01] + Nc1ncn([C@H]2C[C@H](O)[C@@H](CO)O2)c(=O)n1 [Decitabine] (partner 2 µM) | 0.5 | 0.443 | 0.457 | 0.359 | 0.292 | 0.483 | 0.478 | 0.584 | 0.516 | 0.538 | – | – | – | – | 0.296 | 0.34 | 0.274 | 0.246 | 0.388 | – | – | – | – | – | – |
| COc1cc(N2CCC(C(N)=O)CC2)ccc1Nc1nc(N)c(Cl)c(Nc2ccccc2S(=O)(=O)C(C)C)n1 [HG-5-88-01] + O=C(CCCCCCC(=O)Nc1ccccc1)NO [Vorinostat] (partner 1 µM) | 0.616 | 0.307 | 0.626 | 0.308 | 0.301 | 0.747 | 0.601 | 0.803 | 0.79 | 0.781 | – | – | – | – | – | – | – | – | – | 1.03 | 1.01 | 0.776 | 0.825 | 0.899 | – |
| Clc1ccc(Nc2nnc(Cc3ccncc3)c3ccccc23)cc1 [Vatalanib] + CC(=O)Nc1cccc(-n2c(=O)n(C3CC3)c(=O)c3c(Nc4ccc(I)cc4F)n(C)c(=O)c(C)c32)c1 [Trametinib] (partner 0.02 µM) | 0.407 | 0.463 | 0.577 | 0.467 | 0.578 | 0.794 | 0.654 | 0.766 | 0.615 | 0.602 | – | – | – | – | – | – | – | – | – | – | – | – | – | – | – |
| Clc1ccc(Nc2nnc(Cc3ccncc3)c3ccccc23)cc1 [Vatalanib] + CC(=O)c1c(C)c2cnc(Nc3ccc(N4CCNCC4)cn3)nc2n(C2CCCC2)c1=O [Palbociclib] (partner 0.5 µM) | 0.268 | 0.307 | 0.26 | 0.233 | 0.302 | 0.214 | 0.242 | 0.255 | 0.199 | 0.19 | – | – | – | – | – | – | – | – | – | – | – | – | – | – | – |
| Clc1ccc(Nc2nnc(Cc3ccncc3)c3ccccc23)cc1 [Vatalanib] + NC(=O)Nc1cc(-c2cccc(F)c2)sc1C(=O)N[C@H]1CCCNC1 [AZD7762] (partner 0.2 µM) | 0.528 | 0.632 | 0.665 | 0.655 | 0.735 | – | – | – | – | – | 0.128 | 0.14 | – | 0.109 | – | – | – | – | – | – | – | – | – | – | 0.126 |
| Clc1ccc(Nc2nnc(Cc3ccncc3)c3ccccc23)cc1 [Vatalanib] + Nc1nc2[nH]cc(CCc3ccc(C(=O)N[C@@H](CCC(=O)O)C(=O)O)cc3)c2c(=O)[nH]1 [Pemetrexed] (partner 0.2 µM) | 0.67 | 0.674 | 0.691 | 0.741 | 0.718 | 0.676 | 0.654 | 0.751 | 0.625 | 0.62 | – | – | – | – | – | – | – | – | – | – | – | – | – | – | – |
| Clc1ccc(Nc2nnc(Cc3ccncc3)c3ccccc23)cc1 [Vatalanib] + Nc1ncn([C@H]2C[C@H](O)[C@@H](CO)O2)c(=O)n1 [Decitabine] (partner 2 µM) | 0.497 | 0.462 | 0.514 | 0.425 | 0.482 | 0.504 | 0.446 | 0.581 | 0.456 | 0.529 | – | – | – | – | 0.238 | 0.451 | 0.313 | 0.213 | 0.295 | – | – | – | – | – | – |
| Clc1ccc(Nc2nnc(Cc3ccncc3)c3ccccc23)cc1 [Vatalanib] + O=C(CCCCCCC(=O)Nc1ccccc1)NO [Vorinostat] (partner 1 µM) | 0.32 | 0.644 | 0.562 | 0.42 | 0.444 | 0.621 | 0.642 | 0.817 | 0.661 | 0.718 | – | – | – | – | – | – | – | – | – | 0.952 | 1.24 | 0.895 | 0.99 | 0.976 | – |
